Source: patent US20220257571A1, “INHIBITOR OF MAP KINASE INTERACTING SERINE/THREONINE KINASE 1 (MNK1) AND MAP KINASE INTERACTING SERINE/THREONINE KINASE 2 (MNK2), CANCER THERAPY AND THERAPEUTIC COMBINATIONS” (FUNPACIÓ HOSPITAL UNIVERSITARI VALL D'HEBRON - INSTITUT DE …, priority 2019, published 2022)

How the values were obtained:
[1] = system: IMR90 cells, non-transformed fibroblasts; assay: cell growth (crystal violet) and cell death (PI/Hoechst) in IMR90 cells; assay type: cell-based
Method: (§1) Commercially available MDA-MB-231, MDA-MB-468, MCF7 and A375M, IMR90 (IMR-90 (ATCC® CCL-186TH) cells were grown at 37° C. and 5% CO2 in DMEM medium (Dulbecco's Modified Eagle Medium, 4.5 g/I glucose; 30 mg/I L-Glutamine (Gibco)) supplemented with 10% foetal bovine serum, 100 U/ml penicillin and 100 μg/ml streptomycin.
Knock-out mice of the EB1 target kinases MNK1 and MNK2 are viable (Ueda et al 2004; PMID: 15254222). […] Cell growth was measured by crystal violet assay. Cell death was determined by Propidium Iodid (PI)/Hoechst staining and the ratio of dead cell (PI positive) among all analyzed cells (Hoechst) was determined. Cis-platin treatment was included as positive control. […] Minimal side effects for patients are therefore predictable.

[2] = system: 22Rv1 castration resistant prostate cancer cells; assay: cell viability of 22Rv1 cells, EB1 with Enzalutamide; assay type: cell-based; conditions: 22Rv1, co-treatment with Enzalutamide, 72 h
Method: Cell viability under combined inhibition of AR and eIF4E phosphorylation was assayed. […] (B) Number of viable cells after 72 h treatment with pairwise combinations reported as percentage relative to control. (E) Cell viability data presented as a grid displaying the percentage of affected cells by each pairwise combination of drug doses. (C) Drug combinations with the strongest inhibition in cell viability (bars; mean±SEM; n=3. *p<0.05, **p<0.01 two-tailed Student's test). (F) Combination index (CI) presented as a grid for each pairwise combination of drug doses calculated by the Chou-Talalay method at non-constant ratio. (D and I) Fraction affected vs. combination index (CI) plots.

[3] = system: eIF4E phosphorylation in breast cancer cells (MDA-MB-468); assay: titration of eIF4E phosphorylation in MDA-MB-468 cells; assay type: cell-based
Method: as §1
(§2) Inhibition of eIF4E phosphorylation was quantified by Western Blot. Cells were seeded in 60 mm plates (700,000 cells for 24 h, 500,000 cells for 48 h and 300,000 cells for 72 h).
(§3) After 24 h, the treatments were added. The stocks of compounds were prepared in […] at a concentration 200 times more concentrated than the treatment concentration. Thus, in all cases, the final concentration of DMSO in the medium was 0.5%.
(§4) After incubation, proteins were removed and Western Blot was performed. On ice, the plates were washed with PBS and the cells were lysed with 60 μl lysis buffer (50 mM Tris, 200 mM NaCl, 5 mM EDTA, 0.1% Triton 100×, pH 7.5 supplemented with protease inhibitors (EDTA-free Protease Inhibitor Cocktail Set III, Calbiochem) and phosphatase inhibitors (Phosphatase Inhibitor Cocktail Set II, Calbiochem)). The samples were centrifuged at 15,000 g and the supernatant was quantified by the Bradford method. […] Selectivity against MNK was analysed with ERK, p-ERK, MNK1, p-MNK1, 4EBP1 and p-4EBP1 antibodies. […]

MNK2 = target: T1, MNK2 (Homo sapiens, UniProt Q9HBH9); assay: radiometric kinase assay (33PanQinase Activity Assay), MNK2; assay type: biochemical; conditions: after treatment with 10 μM compound; ATP 0.3 μM; read-out: residual activity of MNK2
T1 construct: purchased Proqinase
T1 sequence (Q9HBH9 whole entry): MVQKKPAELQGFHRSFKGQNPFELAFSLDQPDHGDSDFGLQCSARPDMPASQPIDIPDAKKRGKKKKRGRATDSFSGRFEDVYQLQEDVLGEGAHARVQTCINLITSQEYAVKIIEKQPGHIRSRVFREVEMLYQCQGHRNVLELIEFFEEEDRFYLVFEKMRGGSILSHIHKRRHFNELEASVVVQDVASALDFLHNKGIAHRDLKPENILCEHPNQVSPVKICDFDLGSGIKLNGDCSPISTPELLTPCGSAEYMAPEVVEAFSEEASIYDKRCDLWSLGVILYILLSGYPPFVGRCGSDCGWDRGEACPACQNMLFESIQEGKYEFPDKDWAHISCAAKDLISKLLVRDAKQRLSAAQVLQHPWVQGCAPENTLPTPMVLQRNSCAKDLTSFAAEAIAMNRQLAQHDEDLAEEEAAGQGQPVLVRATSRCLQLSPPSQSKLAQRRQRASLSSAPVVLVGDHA
Method: The assays were carried out in 96-well FlashPlates™ by PerkinElmer (Boston, Mass., USA) with a reaction volume of 50 μl. The reaction cocktail was pipetted in 4 steps: (1) 20 μl buffer, (2) 5 μl ATP solution (in H2O), (3) 5 μl compound (in 10% DMSO) and (4) 20 μl enzyme/substrate mixture. […]
To screen compounds, the residual activity of both kinases was analysed after treatment with 10 μM of the compounds.

[4] = system: PD-L1 in MDA-MB-231 cells; assay: PD-L1 levels by western blot in MDA-MB-231 cells; assay type: cell-based, human
Method: MDA-MB-231 cells were treated for 48 h with the indicated concentrations of the inhibitors. DMSO was used as vehicle control. Protein extracts were prepared and western blot analysis were carried out. Data are depicted in FIG. 10.

[5] = system: eIF4E phosphorylation in leukaemia cells (MV4-11); assay: titration of eIF4E phosphorylation in MV4-11 cells; assay type: cell-based
Method: MV4-11 cells were grown in IMDM medium (Iscove's Modified Dulbecco's Medium, Gibco) supplemented with 10% FBS, 1% L-glutamine, 100 U/ml penicillin and 100 μg/ml streptomycin.
as §2, §3
as §4, with “method. The samples were all diluted to the same concentration with a lysis buffer and loading buffer (Laemmli buffer) and denatured for 5 minutes at 95° C.” for “method.”

[6] = system: eIF4E phosphorylation, AR and AR-V7 in 22Rv1 cells; assay: western blot analysis in 22Rv1 cells; assay type: cell-based; conditions: for levels of AR, AR-V7 and eIF4E phosphorylation: 22Rv1, 72 h
320-kinase panel = assay: selectivity on a 320-kinase panel; assay type: biochemical; conditions: 1 μM
Method: The kinase activity of the compound was measured by a radiometric kinase assay (^33PanQinase® Activity Assay) carried out by Proqinase (www.proqinase.com).
The assays were carried out in 96-well FlashPlates™ by PerkinElmer (Boston, Mass., USA) with a reaction volume of 50 μl. The reaction cocktail was pipetted in 4 steps: (1) 20 μl buffer, (2) 5 μl ATP solution (in H2O), (3) 5 μl compound (in 10% DMSO) and (4) 20 μl enzyme/substrate mixture. Lastly, the cocktail contained 70 mM HEPES-NaOH pH 7.5, 3 mM MgCl2, 3 mM MnCl2, 3 μM sodium orthovanadate, 1.2 mM DTT, 50 μg/ml PEG20000, ATP (1 μM for MNK1 and 0.3 μM for MNK2), [γ-^33P]-ATP (approx. […] per well), protein kinase (variable amounts depending on the batch) and substrate (2 μg/50 μl).
Reaction cocktails were incubated at 30° C. for 60 minutes. The reaction was stopped with 50 μl of 2% H3PO4 (v/v), the plates were sucked, they were washed twice with 200 μl of 0.9% NaCl (w/v) and the incorporation of ^33Pi (MicroBeta microplate scintillation counter, Wallac) was determined. […]
The residual activity (in %) for each well of a particular plate was calculated using the following formula (wherein high control is the kinase activity in absence of an inhibitor and low control is the radioactivity value of the substrate in absence of a kinase).
To study selectivity, residual activity was measured at 1 μM from a 320-kinase panel.

[7] = system: eIF4E phosphorylation in melanoma cells (A375M); assay: titration of eIF4E phosphorylation in A375M cells; assay type: cell-based
Method: as §1, §2, §3, §4

Nc1n[nH]c2nc(-c3ccccc3)cc(-c3ccccc3)c12 [EB1, 4,6-diphenyl-1H-pyrazolo[3,4-b]pyridin-3-amine]
cell death ([1]; IMR90, PI/Hoechst staining): does not induce cell death | cell growth arrest ([1]; IMR90, crystal violet): does not cause significant cell growth arrest | effect of co-treatment on cell viability [2]: synergistic effect | activity as MNK inhibitor (eIF4E phosphorylation) [3]: active | remaining activity at 10 µM (MNK2): 52% | levels of PD-L1 ([4]; MDA-MB-231, 48 h): reduces levels of PD-L1 | potency on PD-L1 compared with eFT508 and CGP57380 ([4]; at comparable inhibition rates of eIF4E phosphorylation): equally potent or superior | activity as MNK inhibitor (eIF4E phosphorylation) [5]: active | inhibition of eIF4E phosphorylation ([6]; 22Rv1, 24 h EB1 treatment): Dose dependent inhibition | levels of AR, AR-V7 and eIF4E phosphorylation ([6]; EB1 alone): reduction of AR, its splice variant AR-V7 and eIF4E phosphorylation | levels of AR, AR-V7 and eIF4E phosphorylation ([6]; combination of EB1 and enzalutamide): more pronounced | number of other kinases affected in an equivalent manner (320-kinase panel): 16 | activity as MNK inhibitor (eIF4E phosphorylation) [7]: active
